Reference: patent US4636515A, “Non-classical topical treatment for glaucoma” (University of Iowa Research Foundation, priority 1984, dated 1987)

What was measured:
[1] = test system: carbonic anhydrase; experiment: in vitro carbonic anhydrase activity, simplified method of Maren; type: biochemical
Protocol: The procedure required the use of a specialized glass reaction vessel to which was added 0.4 ml phenol red indicator (0.00125%), 0.25 to 0.30 ml heparinized blood containing 2 enzyme units of carbonic anhydrase, 0.1 ml drug solution (0.01 to 100 mg/L) and 0.1 ml of 0.255 M carbonate buffer. […] Each reagent was added at a specified time and in a specified order. […] Reaction time was the time for the uncatalyzed reaction time. […] By varying the time before adding the carbonate buffer and then determining the reaction time, the equilibration time can be accurately determined. The reaction time was averaged over three determinations. A range of drug concentrations were reacted and the concentration of drug causing 50% inhibition of enzyme (I50) read from a plot of reaction time against drug concentration. (If two enzyme units are added, then the concentration of drug yielding a reaction time corresponding to the activity of one unit is taken as the I50).

[2] = test system: eye of normal adult white rabbits; experiment: Salted rabbit test: intraocular pressure after topical instillation; type: in vivo; conditions: for IOP change, Av. Chg.: 1% w/v suspension, 3 drops topical, vs placebo fellow eye, six rabbits
Protocol: In particular, an initial drop from the test formulation followed by two drops at one minute intervals are applied to one eye of each of six adult white rabbits that had been maintained on a diet containing 0.5% sodium. The treated eye was selected randomly, whereas, the fellow eye received placebo; the observer was masked. Results identified a small but significant reduction of intraocular pressure in the treated eye at 30, 60 and 120 minutes.
One drop, followed by two drops each at one minute intervals, was applied to one eye of normal adult white rabbits. Six rabbits were used in the experiment. The treated eye was selected randomly, whereas, the fellow eye received placebo. The observer was masked. The intraocular pressure (IOP) was measured with a Digilab pneumotonometer, initially and every ten minutes for 120 minutes following instillation of the anti-glaucoma agent. A drop of local anesthetic was applied just prior to making the measurement.

Row | Compound | time required for carbonic anhydrase to reach an equilibrium with drug ([1]; time between addition of drug solution and carbonate buffer) [s] | IOP change, Av. Chg. ([2]; 10 minutes) [mm Hg] | IOP change, Av. Chg. ([2]; 20 minutes) [mm Hg] | IOP change, Av. Chg. ([2]; 30 minutes) [mm Hg] | IOP change, Av. Chg. ([2]; 40 minutes) [mm Hg] | IOP change, Av. Chg. ([2]; 50 minutes) [mm Hg] | IOP change, Av. Chg. ([2]; 60 minutes) [mm Hg] | IOP change, Av. Chg. ([2]; 70 minutes) [mm Hg] | IOP change, Av. Chg. ([2]; 80 minutes) [mm Hg] | IOP change, Av. Chg. ([2]; 90 minutes) [mm Hg] | IOP change, Av. Chg. ([2]; 100 minutes) [mm Hg] | IOP change, Av. Chg. ([2]; 110 minutes) [mm Hg] | IOP change, Av. Chg. ([2]; 120 minutes) [mm Hg] | effect on intraocular pressure (IOP) in vivo (in words) ([2]; after topical administration) | lowering of IOP, statistical significance ([2]; all time intervals, 10 to 120 minutes) | I50 (concentration of drug causing 50% inhibition of enzyme), averaged ([1]; heparinized blood containing 2 enzyme units of carbonic anhydrase, 0° C.) [mg/L]
1 | Nc1ccc(S(N)(=O)=O)cc1 [sulfanilamide, reference compound] | 10 |  |  |  |  |  |  |  |  |  |  |  |  |  |  | 
2 | CNS(=O)(=O)c1nnc(NC(C)=O)s1 [methyl acetazolamide, N-methyl-2-acetylamino-1,3,4-thiadiazole-5-sulfonamide] |  | -2 | -1.67 | -2.33 | -0.40 | -1.83 | -1.67 | -1.67 | -2.14 | -1.50 | -2.67 | -0.67 | -1.5 | able to reduce intraocular pressure | statistically significant | 0.520
